How the values were obtained:
[1] = test system: Thanatephorus cucumeris (Rhizoctonia solani); assay: Thanatephorus cucumeris (Rhizoctonia solani) / liquid culture (foot rot, damping-off); format: cell-based; details: PDB, 24° C., 3-4 days after application, read-out: control of Thanatephorus cucumeris (inhibition of growth, photometric)
Method in brief: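 At 200 ppm, compounds in DMSO were combined with fresh liquid-culture mycelia in PDB and kept at 24° C; photometric measurement of growth inhibition after 3-4 days.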

[2] = test system: Blumeria graminis f. Sp. Tritici (Erysiphe graminis f. Sp. Tritici); assay: Blumeria graminis f. sp. tritici / wheat / leaf disc preventative (powdery mildew on wheat); format: in vivo; details: foliar, wheat leaf segments cv. Kanzler, inoculated 1 day after application, assessed 6-8 days after application, read-out: control of Blumeria graminis (percent disease control compared to untreated)
Method in brief: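 Wheat leaf segments (cv. Kanzler) on agar sprayed with formulated compound at 200 ppm, inoculated with powdery mildew 1 day later. Held at 20 °C, 60% RH, 24 h dark then 12 h/12 h light; percent disease control versus untreated scored 6-8 days after application.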

Pyrenophora teres = Pyrenophora teres / barley / leaf disc preventative (net blotch); format: in vivo; details: foliar, barley leaf segments cv Hasso, inoculated two days after application, assessed 5-7 days after application, read-out: control of Pyrenophora teres (disease control compared to untreated)
Method in brief: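 Preventative leaf-disc test: 200 ppm spray, then spore inoculation after two days on barley cv Hasso segments. Incubation 20 °C, 65% relative humidity, 12 h light/12 h dark; efficacy rated against untreated checks at 5-7 days post-application.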

[3] = test system: Botryotinia fuckeliana (Botrytis cinerea); assay: Botryotinia fuckeliana (Botrytis cinerea) / liquid culture (gray mould); format: cell-based; details: Vogels broth, 24° C., 3-4 days after application, read-out: control of Botryotinia fuckeliana (inhibition of growth, photometric)
Method in brief: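 Test compound was applied at 200 ppm in DMSO, then Vogels nutrient broth containing cryo-stored B. cinerea conidia was added. Photometric growth-inhibition reading followed after 3-4 days at 24 °C.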

[4] = test system: Phaeosphaeria nodorum (Septoria nodorum); assay: Phaeosphaeria nodorum (Septoria nodorum) / wheat / leaf disc preventative (glume blotch); format: in vivo; details: Parastagonospora nodorum, foliar, wheat leaf segments cv Kanzler, inoculated 2 days after application, assessed 5-7 days after application, read-out: control of Phaeosphaeria nodorum (percent disease control compared to untreated)
Method in brief: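 Wheat leaf segments (cv Kanzler) on agar sprayed with compound at 200 ppm, inoculated with spores 2 days later. Incubated at 20° C., 75% relative humidity, 12/12 h light/dark; percent disease control versus untreated scored 5-7 days after application.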

Gaeumannomyces graminis = Gaeumannomyces graminis / liquid culture (take-all of cereals); format: cell-based; details: PDB, 24° C., 4-5 days after application, read-out: control of Gaeumannomyces graminis (inhibition of growth, photometric)
Method in brief: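 Growth inhibition, measured by photometry 4-5 days post-application at 24 °C, of fungal mycelial fragments in PDB broth. Test compound applied as DMSO solution at 200 ppm.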

[5] = test system: Monographella nivalis (Microdochium nivale); assay: Monographella nivalis (Microdochium nivale) / liquid culture (foot rot cereals); format: cell-based; details: PDB, 24° C., 4-5 days after application, read-out: control of Monographella nivalis (inhibition of growth, photometric)
Method in brief: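 Cryostored conidia in potato dextrose broth were added to test compound dispensed from DMSO at 200 ppm. Plates were kept at 24° C, and growth inhibition was read photometrically 4-5 days after application.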

[6] = test system: Puccinia recondita f. sp. Tritici; assay: Puccinia recondita f. sp. tritici / wheat / leaf disc preventative (brown rust); format: in vivo; details: foliar, wheat leaf segments cv Kanzler, inoculated 1 day after application, assessed 7-9 days after application, read-out: control of Puccinia recondita f. sp. Tritici (percent disease control compared to untreated)
Method in brief: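 Preventative test: percent disease control relative to untreated leaf segments was assessed 7-9 days post-application. Wheat (cv Kanzler) leaf discs were treated at 200 ppm and spore-inoculated 1 day afterwards. Discs were held at 19° C and 75% relative humidity under a 12/12 h light cycle.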

CCn1c(-n2ncnc2N)nc2cncc(-c3cccc(F)c3F)c21 [Compound 102, 2-[7-(2,3-difluorophenyl)-1-ethylimidazo[4,5-c]pyridin-2-yl]-1,2,4-triazol-3-amine]
≥ 80%: inhibition at 20 ppm [1] | pest or weed control at 200 ppm [2] | pest or weed control at 200 ppm (Pyrenophora teres) | inhibition at 20 ppm [3] | pest or weed control at 200 ppm [4] | inhibition at 20 ppm (Gaeumannomyces graminis) | inhibition at 20 ppm [5] | pest or weed control at 200 ppm [6]

CCn1c(-n2ncnc2N)nc2cncc(/C(C)=N\OC/C=C(\C)Cl)c21 [Compound 153, 2-[7-[(Z)-N-[(E)-3-chlorobut-2-enoxy]-C-methyl-carbonimidoyl]-1-ethyl-imidazo[4,5-c]pyridin-2-yl]-1,2,4-triazol-3-amine]
≥ 80%: inhibition at 20 ppm [1] | pest or weed control at 200 ppm [2] | pest or weed control at 200 ppm (Pyrenophora teres) | inhibition at 20 ppm [3] | pest or weed control at 200 ppm [4] | inhibition at 20 ppm (Gaeumannomyces graminis) | inhibition at 20 ppm [5] | pest or weed control at 200 ppm [6]

CCn1c(-n2ncnc2N)nc2cncc(-c3cccc(Cl)c3F)c21 [Compound 90, 2-[7-(3-chloro-2-fluorophenyl)-1-ethylimidazo[4,5-c]pyridin-2-yl]-1,2,4-triazol-3-amine]
≥ 80%: inhibition at 20 ppm [1] | pest or weed control at 200 ppm [2] | pest or weed control at 200 ppm (Pyrenophora teres) | inhibition at 20 ppm [3] | pest or weed control at 200 ppm [4] | inhibition at 20 ppm (Gaeumannomyces graminis) | inhibition at 20 ppm [5] | pest or weed control at 200 ppm [6]

CC=Cc1cncc2nc(-n3ncnc3N)n(CC)c12 [Compound 67, 2-(1-ethyl-7-prop-1-enylimidazo[4,5-c]pyridin-2-yl)-1,2,4-triazol-3-amine]
≥ 80%: inhibition at 20 ppm [1] | pest or weed control at 200 ppm [2] | pest or weed control at 200 ppm (Pyrenophora teres) | inhibition at 20 ppm [3] | pest or weed control at 200 ppm [4] | inhibition at 20 ppm (Gaeumannomyces graminis) | inhibition at 20 ppm [5] | pest or weed control at 200 ppm [6]

CCCn1c(-n2ncnc2N)nc2cncc(C)c21 [Compound 173, 2-(7-methyl-1-propyl-imidazo[4,5-c]pyridin-2-yl)-1,2,4-triazol-3-amine]
≥ 80%: inhibition at 20 ppm [1] | pest or weed control at 200 ppm [2] | pest or weed control at 200 ppm (Pyrenophora teres) | inhibition at 20 ppm [3] | pest or weed control at 200 ppm [4] | inhibition at 20 ppm (Gaeumannomyces graminis) | inhibition at 20 ppm [5] | pest or weed control at 200 ppm [6]

CCn1c(-n2ncnc2N)nc2cncc(-c3cccc(OC)c3F)c21 [Compound 93, 2-[1-ethyl-7-(2-fluoro-3-methoxyphenyl)imidazo[4,5-c]pyridin-2-yl]-1,2,4-triazol-3-amine]
≥ 80%: inhibition at 20 ppm [1] | pest or weed control at 200 ppm [2] | pest or weed control at 200 ppm (Pyrenophora teres) | inhibition at 20 ppm [3] | pest or weed control at 200 ppm [4] | inhibition at 20 ppm (Gaeumannomyces graminis) | inhibition at 20 ppm [5] | pest or weed control at 200 ppm [6]

CCCn1c(-n2ncnc2N)nc2cncc(CC)c21 [Compound 174, 2-(7-ethyl-1-propyl-imidazo[4,5-c]pyridin-2-yl)-1,2,4-triazol-3-amine]
≥ 80%: inhibition at 20 ppm [1] | pest or weed control at 200 ppm [2] | pest or weed control at 200 ppm (Pyrenophora teres) | inhibition at 20 ppm [3] | pest or weed control at 200 ppm [4] | inhibition at 20 ppm (Gaeumannomyces graminis) | inhibition at 20 ppm [5] | pest or weed control at 200 ppm [6]

CCCn1c(-n2ncnc2N)nc2cnccc21 [Compound 13, 2-(1-propylimidazo[4,5-c]pyridin-2-yl)-1,2,4-triazol-3-amine]
≥ 80%: inhibition at 20 ppm [1] | pest or weed control at 200 ppm [2] | pest or weed control at 200 ppm (Pyrenophora teres) | inhibition at 20 ppm [3] | pest or weed control at 200 ppm [4] | inhibition at 20 ppm (Gaeumannomyces graminis) | inhibition at 20 ppm [5] | pest or weed control at 200 ppm [6]

CCc1cncc2nc(-n3ncnc3N)n(CC)c12 [Compound 23, 2-(1,7-diethylimidazo[4,5-c]pyridin-2-yl)-1,2,4-triazol-3-amine]
≥ 80%: inhibition at 20 ppm [1] | pest or weed control at 200 ppm [2] | pest or weed control at 200 ppm (Pyrenophora teres) | inhibition at 20 ppm [3] | pest or weed control at 200 ppm [4] | inhibition at 20 ppm (Gaeumannomyces graminis) | inhibition at 20 ppm [5] | pest or weed control at 200 ppm [6]

CCn1c(-n2ncnc2N)nc2cncc(-c3ccc(F)c(F)c3F)c21 [Compound 86, 2-[1-ethyl-7-(2,3,4-trifluorophenyl)imidazo[4,5-c]pyridin-2-yl]-1,2,4-triazol-3-amine]
≥ 80%: inhibition at 20 ppm [1] | pest or weed control at 200 ppm [2] | pest or weed control at 200 ppm (Pyrenophora teres) | inhibition at 20 ppm [3] | pest or weed control at 200 ppm [4] | inhibition at 20 ppm (Gaeumannomyces graminis) | inhibition at 20 ppm [5] | pest or weed control at 200 ppm [6]

CCn1c(-n2ncnc2N)nc2cncc(-c3cccnc3F)c21 [Compound 89, 2-[1-ethyl-7-(2-fluoropyridin-3-yl)imidazo[4,5-c]pyridin-2-yl]-1,2,4-triazol-3-amine]
≥ 80%: inhibition at 20 ppm [1] | pest or weed control at 200 ppm [2] | pest or weed control at 200 ppm (Pyrenophora teres) | inhibition at 20 ppm [3] | pest or weed control at 200 ppm [4] | inhibition at 20 ppm (Gaeumannomyces graminis) | inhibition at 20 ppm [5] | pest or weed control at 200 ppm [6]

CCn1c(-n2ncnc2N)nc2cncc(C(C)=O)c21 [Compound 75, 1-[2-(5-amino-1,2,4-triazol-1-yl)-1-ethylimidazo[4,5-c]pyridin-7-yl]ethanone]
≥ 80%: inhibition at 20 ppm [1] | pest or weed control at 200 ppm [2] | pest or weed control at 200 ppm (Pyrenophora teres) | inhibition at 20 ppm [3] | pest or weed control at 200 ppm [4] | inhibition at 20 ppm (Gaeumannomyces graminis) | inhibition at 20 ppm [5] | pest or weed control at 200 ppm [6]

Source: US9512120B2, “Microbicidally active imidazopyridine derivatives” (Syngenta Participations AG, priority 2013, dated 2016)
